# Experimental data from PMC4164441, “The Characterisation of an Alkali-Stable Maltogenic Amylase from Bacillus lehensis G1 and Improved Malto-Oligosaccharide Production by Hydrolysis Suppression” (PLoS ONE, 2014).
# Target: T1, MAG1 (Shouchella lehensis, UniProt X5CPN2)
# T1 construct: gene BleG1_0772; full-length ORF, 582 residues, pET21a(+) in E. coli BL21(DE3), Ni-NTA purified, tag kept (His-tag western); 68 kDa SDS-PAGE; monomer/dimer mixture; primers start MNRAGII
# Experiment: DNS reducing sugar assay, Lineweaver-Burk plot
# Type: biochemical
# Settings: 50 mM potassium phosphate pH 7.0, 40°C; hydrolysis; read-out: Km (mg ml^-1) (converted)
# Text: DNS reducing sugar assay, Lineweaver-Burk plot on MAG1
# T1 sequence (X5CPN2 entry or part of it): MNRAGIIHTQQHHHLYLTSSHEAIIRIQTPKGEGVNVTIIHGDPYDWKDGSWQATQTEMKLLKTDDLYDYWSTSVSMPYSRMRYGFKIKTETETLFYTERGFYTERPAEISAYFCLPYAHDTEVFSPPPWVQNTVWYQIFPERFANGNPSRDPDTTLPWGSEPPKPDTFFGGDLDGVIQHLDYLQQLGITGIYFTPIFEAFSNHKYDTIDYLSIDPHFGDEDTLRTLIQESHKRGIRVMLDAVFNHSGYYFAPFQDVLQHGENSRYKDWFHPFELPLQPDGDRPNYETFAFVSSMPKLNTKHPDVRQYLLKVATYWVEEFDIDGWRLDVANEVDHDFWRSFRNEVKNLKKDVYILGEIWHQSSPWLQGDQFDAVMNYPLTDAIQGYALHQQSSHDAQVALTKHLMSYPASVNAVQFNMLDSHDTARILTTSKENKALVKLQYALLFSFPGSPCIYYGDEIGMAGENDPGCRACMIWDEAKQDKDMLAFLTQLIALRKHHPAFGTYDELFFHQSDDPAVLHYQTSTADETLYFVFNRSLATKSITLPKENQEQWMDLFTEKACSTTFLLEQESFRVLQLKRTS
smiles,measurement,value
OC[C@H]1O[C@@H]2O[C@H]3[C@H](O)[C@@H](O)[C@@H](O[C@H]4[C@H](O)[C@@H](O)[C@@H](O[C@H]5[C@H](O)[C@@H](O)[C@@H](O[C@H]6[C@H](O)[C@@H](O)[C@@H](O[C@H]7[C@H](O)[C@@H](O)[C@@H](O[C@H]8[C@H](O)[C@@H](O)[C@@H](O[C@H]1[C@H](O)[C@H]2O)O[C@@H]8CO)O[C@@H]7CO)O[C@@H]6CO)O[C@@H]5CO)O[C@@H]4CO)O[C@@H]3CO [β-CD],Km,1120 µM
